Assay results taken from patent US10858357B2, “Water-soluble myosin 2 inhibitors for the treatment of neurological, neuropathic or psychiatric diseases” (PARIS SCIENCES ET LETTRES-QUARTIER LATIN, priority 2016, dated 2020).
In brackets after ≈: the same amount, converted by molar mass.

Columns and labels:
[1] = tested on: EGFP-α-tubulin H2B-mCherry HeLa Kyoto cells; assay: HeLa cell toxicity, 12-hour confocal time-lapse imaging; assay type: cell-based, human; settings: time-lapse imaging, concentration not given
Protocol: For phototoxicity experiments, confocal time-lapse imaging of HeLa Kyoto H2B-mCherry eGFP-α-tubulin cells for 12 hours was performed in DMEM further supplemented with 25 mM HEPES in order to achieve CO2 independent media. Confocal time-lapse imaging was performed on a Zeiss LSM 710 using a Plan Apo 20×/0.8 objective, with the following parameters: 2% laser intensity at λexc=488 nm, 3% laser intensity at λexc=543 nm, 1.2× zoom, average 4, line step 1, 1000×1000 pixels, 0.35 μm pixel size, 0.65 μs dwell time, 3 slice/z-stack with 7 μm between slices at every 10 minutes.
To test the cytotoxicity of neurelaxin-A in live-cell fluorescence microscopy, time-lapse EGFP-α-tubulin H2B-mCherry labeled HeLa Kyoto cells were imaged in a confocal microscope (FIG. 4a).
Cells were treated with 50 μM neurelaxin-A and imaged for 12 hours applying 3 z-sections every 10 minutes.

[2] = cited from earlier work; for solubility: Képiró et al., Angew. Chem. Int. Ed., 2014
[3] = tested on: cannabinoid-induced working memory loss; assay: Novel object recognition (NOR) test with CP55,940; assay type: in vivo; settings: CP55,940 1 hour prior to familiarization, no neurelaxin-A
Protocol: In this experiment, a novel object recognition (NOR) test was performed.
In this test animals are presented to two objects and it will explore them for a while. After, one of the objects is changed for a new and different one. Under normal circumstances animals will be attracted to the novel object and will spend more time exploring it, by comparison to the older and already known object. Animals with memory deficit will explore both objects equally.
The synthetic cannabinoid CB1R agonist CP55,940 is administrated 1 hour prior to the familiarization step. Thirty minutes prior to the familiarization animals are either treated or not with neurelaxin-A.

myosin 2 = settings: Lucas-Lopez et al., 2008; cited from earlier work

For `Cc1ccc2c(c1)C(=O)C1(O)CCN(c3ccccc3)C1=N2` (stereo not drawn) [Blebbistatin], the “cytotoxic phenotype in HeLa Kyoto cells (positive control)” value [1] is listed as “cells round up from the surface and eventually die”, the solubility [2] is listed as “around 20 μM” and the “water solubility: concentration above which slow precipitation is observed” value ([2]; background statement) is listed as 10 µM (≈ 2.92 µg/mL).

For `CCCCCCC(C)(C)c1ccc([C@@H]2C[C@H](O)CC[C@H]2CCCO)c(O)c1` [CP55,940, reference compound], the “NOR test: exploration of familiar and novel object” value [3] was “spend similar time exploring both objects”.

For `O=C1c2ccc([N+](=O)[O-])cc2N=C2N(c3ccccc3)CCC12O` (stereo not drawn) [Nitroblebbistatin], the IC50 (myosin 2) is listed as 27.5 µM.

For `Cc1ccc2c(c1)C(=O)C1(O)CCN(c3ccc([N+](=O)[O-])cc3)C1=N2` (stereo not drawn) [Para-nitroblebbistatin], the solubility [2] is given as “around 20 μM”.
